Results reported in patent US10738024B2, “Compounds for treatment of angiogenesis-mediated diseases” (Indiana University Research and Technology Corporation, priority 2013, dated 2020).
Entries after “also recorded” stand apart in the source; their conditions may differ. Where two headings read alike, the source gives them in different places.

Tests used:
[1] = test system: Y-79 retinoblastoma cells; experiment: ALAMARBLUE proliferation assay in Y-79 retinoblastoma cells; format: cell-based; conditions: 50% growth inhibitory concentration, 48 hours
Experimental: (§1) For proliferation assays, cells (2500 per well) were seeded in a 96-well clear bottom black polystyrene plate in a total volume of 100 μL. HUVECs and HRECs were grown in EGM-2 and CSC+ media respectively, while 92-1 and Y79 cells were maintained in RPMI+10% FBS, penicillin/streptomycin and RB medium (IMDM+10% FBS+penicillin/streptomycin+10 μg/mL insulin+55 μM β-mercaptoethanol) respectively. After 24 hours of incubation of the plate at 37° C., the compounds were dissolved in DMSO and added in the concentration range of 500 μM to 0.5 nM. The plate was then incubated at 37° C. and 5% CO2 conditions for 48 hours before adding 11.1 μL of alamar blue reagent for each well. Four hours after the addition of ALAMARBLUE® reagent, fluorescence readings with excitation and emission wavelengths of 560 nm and 590 nm respectively were taken and the data was analyzed in GraphPad Prism software. The dose response curves were generated and the GI50 values were calculated using the equation: Y=100/(1+10^(X−Log GI50)) (Table 1).

[2] = test system: HRECs; experiment: ALAMARBLUE proliferation assay in HRECs; format: cell-based, human; conditions: for GI50: Homo sapiens, HREC; for in vitro anti-proliferative activity in HRECs: result in words, FIGS. 6B, 6D, 14
Experimental: (§2) Particularly, in a 96-well clear bottom black plate, cells (2,500 cells per well) were seeded in a total volume of 100 μL EGM-2. After 24 hours of incubation of the plate at 37° C. and 5% CO2, a DMSO solution of synthetic cremastranone (1) or SH-11052 (2) was added in the concentration range of 0.5 nM to 500 μM (final DMSO concentration=1%). The plate was then further incubated for 48 hours before adding 11.1 μL of ALAMARBLUE® reagent to each well. Four hours after the addition of ALAMARBLUE®, fluorescence readings with excitation and emission wavelengths of 560 nm and 590 nm, respectively, were taken and the data were analyzed in GraphPad Prism software (v. 6.0). Dose response curves were generated and the GI50 values were calculated using the following equation: Y=100/(1+10^(X−Log GI50)).
as §1

[3] = test system: HUVECs; experiment: ALAMARBLUE proliferation assay in HUVECs; format: cell-based, human; conditions: for GI50: 50% growth inhibitory concentration, alamarBlue
Experimental: as §2, §1

[4] = test system: HRECs; experiment: Apoptosis of HRECs by cleaved caspase-3 staining; format: cell-based, human
Experimental: Further, cells (25,000 per coverslip) were seeded onto coverslips coated with Attachment Factor (Cell Systems, Kirkland, Wash., USA) and incubated at 37° C. and 5% CO2 in EGM-2 until ˜80% confluence was achieved. The cells were then incubated for 4 hours with the indicated concentrations of SH-11052 (2). Staurosporine (SP; 1 μM) was used as a positive control. After the incubation, the cells were fixed in 4% paraformaldehyde for 20 minutes at room temperature followed by three quick washes in Tris buffered saline pH 7.4 (TBS). The cells were permeabilized by incubating with 0.5% Triton X-100 for 10 minutes and then blocked in 10% block solution (DAKO, Glostrup, Denmark) in TBS plus 1% bovine serum albumin (BSA) for 1 hour. The cells were then incubated with cleaved caspase-3 (D175) antibody (1:200 dilution) overnight at 4° C. Dylight 555 conjugated goat anti-rabbit secondary antibody (1:400) was used to probe the cleaved caspase-3 antibody. The coverslips were mounted using Vectashield mounting medium containing DAPI (Vector Labs, Burlingame, Calif., USA) for nuclear staining. The cells were imaged using an LSM 700 confocal microscope (Zeiss, Thornwood, N.Y., USA).

[5] = test system: NF-κB p65; experiment: TNF-α induced NF-κB p65 nuclear translocation in HRECs (immunofluorescence); format: cell-based, human; conditions: 10 ng/ml TNF-α for 20 minutes
Experimental: Cells (25,000 per coverslip) were seeded onto coverslips coated with Attachment Factor (Cell Systems, Kirkland, Wash., USA) and incubated at 37° C. and 5% CO2 for 24 hours in EGM-2. The cells were starved in 0.1% serum-EBM-2 for 8 hours followed by 0.1% serum-EBM-2 medium for one hour in the presence of different concentrations of SH-11052 (2). The cells were induced with 10 ng/ml TNF-α, a known pro-inflammatory cytokine and inducer of NF-κB, for 20 minutes and fixed with 4% paraformaldehyde solution for 20 minutes at room temperature. Since NF-κB exerts its transcriptional activity in the nucleus, blockade of stimulus-induced nuclear translocation of NF-κB is an indication of NF-κB pathway inhibition.
Cells were quickly washed three times in TBS and permeabilized by incubating with 0.5% Triton X-100 for 10 minutes. The cells were blocked in 10% block solution (DAKO) in TBS plus 1% BSA followed by incubation with an antibody against NF-κB p65 (1:50 dilution). Dylight 488-conjugated goat anti-mouse secondary antibody (1:200 dilution) was used to probe the NF-κB p65 antibody. The coverslips were mounted using Vectashield mounting medium containing DAPI (Vector Labs) for nuclear staining. The cells were imaged using an LSM 700 confocal microscope (Zeiss). […]

[6] = test system: 92-1 uveal melanoma cells; experiment: ALAMARBLUE proliferation assay in 92-1 uveal melanoma cells; format: cell-based; conditions: for GI50: 50% growth inhibitory concentration, 48 hours, alamarBlue
Experimental: as §1

[7] = 50% growth inhibitory concentration, 48 hours, alamarBlue, read-out: GI50 HREC

| Structure (SMILES) | GI50 [1] [µM] | GI50 [2, 7] [nM] | in vitro anti-proliferative activity in HRECs [2] | GI50 ([3]; Homo sapiens, HUVEC, 48 h) [nM] | in vitro anti-proliferative activity in HUVECs ([3]; result in words, FIGS. 6A, 6C) | apoptosis of HRECs (cleaved caspase-3 staining) ([4]; 100 μM, 4 hours) | nuclear translocation of NF-κB (p65) upon TNF-α stimulation / NF-κB signaling ([5]; listed as SH-11052 (2)) | GI50 [6] [µM] | GI50 ([2]; text of Example 15, FIG. 14, read-out: HREC GI50) [nM] | GI50 ([3]; 48 hours, listed as 6c (SH-11037), read-out: GI50 HUVEC) [nM] | apoptosis of HRECs ([4]; concentration not given, FIGS. 16A-16B, listed as SH-11037 (6c)) | nuclear translocation of NF-κB (p65) upon TNF-α stimulation / NF-κB signaling ([5]; listed as SH-11037 (6c)) | toxicity to a uveal melanoma cell line ([6]; result in words) |
| --- | --- | --- | --- | --- | --- | --- | --- | --- | --- | --- | --- | --- | --- |
| COc1ccc(CC2COc3cc(OC)c(O)c(O)c3C2=O)cc1O (single isomer, unassigned) [Compound 2] | 87 | 43000 | demonstrated in vitro anti-proliferative activity | 18000 | demonstrated in vitro anti-proliferative activity | negligible apoptosis | blocked NF-κB signaling; also recorded: inhibited | 6 | – | – | – | – | – |
| COc1ccc(CC2COc3cc(OC)c(OC)c(OC)c3C2=O)cc1OC(=O)[C@H](Cc1ccccc1)NC(=O)OC(C)(C)C (stereo partly drawn) [Compound 6c, (2S)-2-methoxy-5-((5,6,7-trimethoxy-4-oxochroman-3-yl)methyl)phenyl 2-((tert-butoxycarbonyl)amino)-3-phenylpropanoate] | 12 | 87 | inhibition of proliferation | 1000 | – | – | – | 400 | 150 | 746 | did not cause apoptosis; also recorded: did not promote apoptosis | did not inhibit NF-κB signaling | non-toxic |
